Reference: ChEMBL document CHEMBL2321779, “Aminophenoxazinones as inhibitors of indoleamine 2,3-dioxygenase (IDO). Synthesis of exfoliazone and chandrananimycin A” (J Med Chem, 2013)

How the values were obtained:
[1] = biological target: T1, Indoleamine 2,3-dioxygenase 1 (Homo sapiens, UniProt P14902); test: Inhibition of human recombinant N-terminus 6X-histidine-tagged indoleamine 2,3-dioxygenase expressed in Escherichia coli assessed as inhibition of L-tryptophan to N-formylkynurenine formation measured as residual enzyme activity at 0.1 uM incubated for 10 mins prior to substrate addition measured …
Target sequence in this assay (P14902 whole entry, looked up): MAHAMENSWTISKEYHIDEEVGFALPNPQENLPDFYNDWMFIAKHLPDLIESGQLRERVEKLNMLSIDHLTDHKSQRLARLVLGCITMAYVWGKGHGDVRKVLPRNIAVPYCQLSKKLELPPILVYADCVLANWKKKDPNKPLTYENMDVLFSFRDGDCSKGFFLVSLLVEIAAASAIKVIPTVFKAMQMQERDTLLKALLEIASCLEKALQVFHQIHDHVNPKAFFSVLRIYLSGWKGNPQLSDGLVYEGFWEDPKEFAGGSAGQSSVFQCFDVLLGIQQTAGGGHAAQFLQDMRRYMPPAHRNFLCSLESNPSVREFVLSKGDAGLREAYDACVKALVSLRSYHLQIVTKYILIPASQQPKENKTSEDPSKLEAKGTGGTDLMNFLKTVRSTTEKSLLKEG

[2] = biological target: T1, Indoleamine 2,3-dioxygenase 1; test: Inhibition of human recombinant N-terminus 6X-histidine-tagged indoleamine 2,3-dioxygenase expressed in Escherichia coli assessed as inhibition of L-tryptophan to N-formylkynurenine formation measured as residual enzyme activity at 1 uM incubated for 10 mins prior to substrate addition measured …; values are per cent of control
Target sequence in this assay (P14902 whole entry, looked up): as above

[3] = biological target: T1, Indoleamine 2,3-dioxygenase 1; test: Inhibition of human recombinant N-terminus 6X-histidine-tagged indoleamine 2,3-dioxygenase expressed in Escherichia coli assessed as inhibition of L-tryptophan to N-formylkynurenine formation measured as residual enzyme activity at 10 uM incubated for 10 mins prior to substrate addition measured …; values are per cent of control
Target sequence in this assay (P14902 whole entry, looked up): as above

[4] = biological target: T1, Indoleamine 2,3-dioxygenase 1; test: Inhibition of human recombinant N-terminus 6X-histidine-tagged indoleamine 2,3-dioxygenase expressed in Escherichia coli assessed as inhibition of L-tryptophan to N-formylkynurenine formation measured as residual enzyme activity incubated for 10 mins prior to substrate addition measured after 30 mins by UV-vis spectrophotometric analysis relative to DMSO-treated control
Target sequence in this assay (P14902 whole entry): as the sequence (P14902 whole entry, looked up) above

Which residual activity [1] does the source give for `COC(=O)c1c2nc3c(C(=O)OC)cccc3oc-2cc(=O)c1N` here?
The residual activity was 94%.

What about the residual activity [2] of the same compound?
Its residual activity is 60%.

What about the residual activity [3] of the same compound?
The residual activity was 30%.

Which residual activity [1] does the source give for `Nc1c(C(=O)O)c2nc3c(C(=O)O)cccc3oc-2cc1=O` [CINNABARINIC ACID] here?
Its residual activity is 71%.

What about the residual activity [2] of the same compound?
The residual activity was 23%.

And the residual activity [3]?
Its residual activity is 11%.

What about the IC50 [4] of the same compound?
The IC50 was 460 nM.

And the Ki [4]?
Its Ki is 326 nM.

How did the residual activity [1] turn out when `COC(=O)c1c2nc3cc(CO)ccc3oc-2cc(=O)c1N` was run?
Its residual activity is 95%.

What about the residual activity [2] of the same compound?
Its residual activity is 75%.

What about the residual activity [3] of the same compound?
The residual activity was 34%.

How did the residual activity [1] turn out when `CC(=O)Nc1cc2nc3c(O)cccc3oc-2cc1=O` was run?
The residual activity was 100%.

What about the residual activity [2] of the same compound?
The residual activity was 99%.

And the residual activity [3]?
Its residual activity is 92%.

What does the source list for `COC(=O)c1c2nc3c(C(=O)OC)ccc(C)c3oc-2c(C)c(=O)c1N`?
residual activity [1]: 66%; residual activity [2]: 29%; residual activity [3]: 24%

How did the residual activity [1] turn out when `Cc1ccc2oc3cc(=O)c(N)cc-3nc2c1` was run?
The residual activity was 99%.

And the residual activity [2]?
Its residual activity is 100%.

And the residual activity [3]?
The residual activity was 91%.

With `Cc1c2nc3c(C)cccc3oc-2cc(=O)c1N` as the compound, how does the residual activity [1] read?
The residual activity was 98%.

What about the residual activity [2] of the same compound?
The residual activity was 100%.

What about the residual activity [3] of the same compound?
The residual activity was 95%.

What does the source list for `CC(=O)Nc1cc2nc3cc(CO)ccc3oc-2cc1=O`?
residual activity [1]: 85%; residual activity [2]: 82%; residual activity [3]: 74%

How did the residual activity [1] turn out when `Nc1cc2nc3c(O)cccc3oc-2cc1=O` was run?
The residual activity was 100%.

And the residual activity [2]?
The residual activity was 100%.

And the residual activity [3]?
Its residual activity is 97%.

With `Nc1cc2nc3ccccc3oc-2cc1=O` as the compound, how does the residual activity [1] read?
Its residual activity is 82%.

And the residual activity [2]?
The residual activity was 94%.

What about the residual activity [3] of the same compound?
Its residual activity is 74%.

For `Nc1cc2nc3cc(CO)ccc3oc-2cc1=O`, which residual activity [1] is on record?
Its residual activity is 84%.

And the residual activity [2]?
Its residual activity is 87%.

What about the residual activity [3] of the same compound?
Its residual activity is 80%.
